Results as given in paper PMC10458862, “Binding Specificity of a Novel Cyclo/Maltodextrin-Binding Protein and Its Role in the Cyclodextrin ABC Importer System from Thermoanaerobacterales” (Molecules, 2023).
Read-outs that look alike come from different tables or passages of the source. Marks after values point to notes of the source that are not given here.

Assays:
[1] = biological target: T1, MdxE (Thermoanaerobacter mathranii subsp. mathranii, UniProt A0ABM5LRQ5); test: ITC measurements of MdxE-ligand binding; set-up: species or system Thermoanaerobacter mathranii subsp. mathranii A3
T1 sequence (A0ABM5LRQ5 entry or part of it): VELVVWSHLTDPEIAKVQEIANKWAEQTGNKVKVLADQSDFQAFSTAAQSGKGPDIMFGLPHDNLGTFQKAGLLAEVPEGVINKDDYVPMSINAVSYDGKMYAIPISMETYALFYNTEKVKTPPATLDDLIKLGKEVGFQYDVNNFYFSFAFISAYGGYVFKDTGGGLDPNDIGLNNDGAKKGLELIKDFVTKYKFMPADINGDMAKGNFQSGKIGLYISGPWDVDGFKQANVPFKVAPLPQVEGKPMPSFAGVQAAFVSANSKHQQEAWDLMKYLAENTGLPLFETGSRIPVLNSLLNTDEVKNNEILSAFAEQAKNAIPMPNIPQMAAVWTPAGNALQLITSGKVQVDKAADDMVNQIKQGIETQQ
Method: To assess the binding affinities of MdxE toward different linear dextrins and CDs for the CM-CD pathway, functional experiments of MdxE-ligand complex formation were performed using isothermal titration calorimetry (ITC) to determine the dissociation constant (Kd) and enthalpy (ΔH) for ligand binding, as well as the Gibbs free energy (ΔG) contribution to the binding (Figure 3).
Purified MdxE at 4 μM was titrated with 0.8 mM CDs and linear dextrins using a VP-ITC calorimeter (Cytiva) at 55 °C. In all measurements, the sample cell and syringe were filled with protein and ligand solution, respectively, and the reference cell was filled with ultrapure water. The stirring speed of the sample syringe during measurements was 250 rpm. After baseline stabilization and an initial injection of 2 µL, 25 successive injections of 11 µL were carried out with a 5 min equilibration period between injections. Since both protein and ligands were in buffer C, the heat of dilution was neglected in the experiments. The resulting data were analyzed in triplicate (n = 3) using the Origin 7 ITC analysis v7.0 software from Microcal by fitting the titration curves to a single binding site model.

[2] = biological target: T1, MdxE; test: ANS fluorescence determination of protein surface hydrophobicity (Ho) of MdxE-ligand complexes; set-up: species or system Thermoanaerobacter mathranii subsp. mathranii A3; details: for Ho (protein surface hydrophobicity, slope of RFU versus MdxE concentration): MdxE 2–14 µM, 350 µM ligand, 20 µM ANS, λmax = 485 nm, letters = Tukey groups (p < 0.05)
Method: To evaluate the switching from an open to a closed form of productive MdxE-ligand complexes obtained with the sugars listed in Table 1, changes in the protein surface hydrophobicity (Ho) of MdxE-ligand complexes using the fluorescent probe 8-anilinonaphthalene-1-sulfonate (ANS) were determined (Figure 4).
The changes in H0 associated with the open-to-closed conformational changes of productive MdxE-ligand complexes were determined based on the method described previously, using a Nanodrop ND-3300 fluorospectrometer (Thermo Fisher, Waltham, MA, USA) controlled by ND-3300 v2.8.0 software with ANS as a fluorescence probe at an excitation wavelength of 365 nm and 400–600 nm as the range for emission scan. The fluorescent response was measured in RFU using buffer C for all solutions. […] For H0 measurements, MdxE-ligand complexes were heated at 55 °C for 10 min. Subsequently, ANS was added to form the (MdxE-ligand)-ANS complexes, and the solutions were heated again at 55 °C for 3 min; then, the solutions were cooled to room temperature. Data were analyzed in triplicate (n = 3), and H0 was estimated as the slope of the linear curve fitted for RFU versus MdxE concentrations plotted at the maximum emission wavelength (λ = 485 nm) using the emtrends() function from emmeans package in R [58, 59]. A Tukey’s test (α = 0.05) for multiple comparisons was performed to determine significant differences in H0 between CDs and linear dextrins tested. All fluorescence measurements were made at 22 °C.

[3] = biological target: TvuCMBP; set-up: method as in PMID 17371546; details: ND = not detected; cited from earlier work
[4] = biological target: EcoMBP; details: cited from earlier work
[5] = biological target: CymE; set-up: method as in PMID 9573146; details: ND = not detected; cited from earlier work
[6] = biological target: AcyMBP; set-up: method as in PMID 11053372; details: cited from earlier work
[7] = ITC, 55 °C, 4 μM MdxE titrated with 0.8 mM ligand, single binding site model, n = 3, ND = not detected, read-out: Kd MdxE

Compound	Kd [1, 7] [nM]	ΔG ([1]; ITC, 55 °C, ND = not detected) [kcal/mol]	ΔH ([1]; ITC, 55 °C, ND = not detected) [kcal/mol]	Ho (protein surface hydrophobicity, slope of RFU versus MdxE concentration) [2]	Kd [3] [nM]	Kd [4] [nM]	Kd [5] [nM]	open-to-closed conformational change of MdxE ([2]; fluorescence analysis with ANS)	Kd [1] [nM]	Kd MdxE ([1]; ITC, 55 °C, 4 μM MdxE titrated with 0.8 mM ligand, single binding site model, n = 3, ND = not detected)	Kd [6] [nM]	MdxE-ligand complex formation by fluorescence measurements ([2]; fluorescence analysis with ANS)
maltohexaose [G6]	1850	-8.61	-12.98	26.8 ^c	–	–	–	–	–	–	–	–
OC[C@H]1O[C@H](O[C@H]2[C@H](O)[C@@H](O)[C@@H](O[C@H]3[C@H](O)[C@@H](O)C(O)O[C@@H]3CO)O[C@@H]2CO)[C@H](O)[C@@H](O)[C@@H]1O (mixture of isomers) [G3, maltotriose]	3020	-8.50	-8.64	24.3 ^c	970	200	–	–	–	–	–	–
maltopentaose [G5]	2440	-8.30	-13.94	27.3 ^c	200	–	–	–	–	–	–	–
OC[C@H]1O[C@@H]2O[C@H]3[C@H](O)[C@@H](O)[C@@H](O[C@H]4[C@H](O)[C@@H](O)[C@@H](O[C@H]5[C@H](O)[C@@H](O)[C@@H](O[C@H]6[C@H](O)[C@@H](O)[C@@H](O[C@H]7[C@H](O)[C@@H](O)[C@@H](O[C@H]8[C@H](O)[C@@H](O)[C@@H](O[C@H]9[C@H](O)[C@@H](O)[C@@H](O[C@H]1[C@H](O)[C@H]2O)O[C@@H]9CO)O[C@@H]8CO)O[C@@H]7CO)O[C@@H]6CO)O[C@@H]5CO)O[C@@H]4CO)O[C@@H]3CO [γ-CD]	1510	–	-6.50	24.5 ^c	230	–	300	–	–	–	–	–
OC[C@H]1O[C@@H]2O[C@H]3[C@H](O)[C@@H](O)[C@@H](O[C@H]4[C@H](O)[C@@H](O)[C@@H](O[C@H]5[C@H](O)[C@@H](O)[C@@H](O[C@H]6[C@H](O)[C@@H](O)[C@@H](O[C@H]7[C@H](O)[C@@H](O)[C@@H](O[C@H]8[C@H](O)[C@@H](O)[C@@H](O[C@H]1[C@H](O)[C@H]2O)O[C@@H]8CO)O[C@@H]7CO)O[C@@H]6CO)O[C@@H]5CO)O[C@@H]4CO)O[C@@H]3CO [β-CD]	2040	–	-5.28	41.8 ^b	1200	1000	140	solely triggered	–	–	–	–
OC[C@H]1O[C@@H]2O[C@H]3[C@H](O)[C@@H](O)[C@@H](O[C@H]4[C@H](O)[C@@H](O)[C@@H](O[C@H]5[C@H](O)[C@@H](O)[C@@H](O[C@H]6[C@H](O)[C@@H](O)[C@@H](O[C@H]7[C@H](O)[C@@H](O)[C@@H](O[C@H]1[C@H](O)[C@H]2O)O[C@@H]7CO)O[C@@H]6CO)O[C@@H]5CO)O[C@@H]4CO)O[C@@H]3CO [α-CD]	–	–	-6.83	37.1 ^a	730	–	20	solely triggered	610	–	–	–
maltoheptaose [G7]	910	-9.09	-11.54	27.1 ^c	–	–	70000	–	–	–	–	–
OC[C@H]1O[C@H](O[C@H]2[C@H](O)[C@@H](O)C(O)O[C@@H]2CO)[C@H](O)[C@@H](O)[C@@H]1O (mixture of isomers) [G2, maltose]	–	–	–	15.1 ^d	410	1000	–	–	–	no binding interaction was observed	1500	no MdxE-G2 complex formation was observed
